We go through five compounds from ChEMBL document CHEMBL1201862, “PubChem BioAssay data set” (2004).

Activity calls are given as the source filed them.

The target in assay [1] is T1, Hexokinase HKDC1 (Homo sapiens, UniProt Q2TB90).
T1 sequence (Q2TB90 whole entry): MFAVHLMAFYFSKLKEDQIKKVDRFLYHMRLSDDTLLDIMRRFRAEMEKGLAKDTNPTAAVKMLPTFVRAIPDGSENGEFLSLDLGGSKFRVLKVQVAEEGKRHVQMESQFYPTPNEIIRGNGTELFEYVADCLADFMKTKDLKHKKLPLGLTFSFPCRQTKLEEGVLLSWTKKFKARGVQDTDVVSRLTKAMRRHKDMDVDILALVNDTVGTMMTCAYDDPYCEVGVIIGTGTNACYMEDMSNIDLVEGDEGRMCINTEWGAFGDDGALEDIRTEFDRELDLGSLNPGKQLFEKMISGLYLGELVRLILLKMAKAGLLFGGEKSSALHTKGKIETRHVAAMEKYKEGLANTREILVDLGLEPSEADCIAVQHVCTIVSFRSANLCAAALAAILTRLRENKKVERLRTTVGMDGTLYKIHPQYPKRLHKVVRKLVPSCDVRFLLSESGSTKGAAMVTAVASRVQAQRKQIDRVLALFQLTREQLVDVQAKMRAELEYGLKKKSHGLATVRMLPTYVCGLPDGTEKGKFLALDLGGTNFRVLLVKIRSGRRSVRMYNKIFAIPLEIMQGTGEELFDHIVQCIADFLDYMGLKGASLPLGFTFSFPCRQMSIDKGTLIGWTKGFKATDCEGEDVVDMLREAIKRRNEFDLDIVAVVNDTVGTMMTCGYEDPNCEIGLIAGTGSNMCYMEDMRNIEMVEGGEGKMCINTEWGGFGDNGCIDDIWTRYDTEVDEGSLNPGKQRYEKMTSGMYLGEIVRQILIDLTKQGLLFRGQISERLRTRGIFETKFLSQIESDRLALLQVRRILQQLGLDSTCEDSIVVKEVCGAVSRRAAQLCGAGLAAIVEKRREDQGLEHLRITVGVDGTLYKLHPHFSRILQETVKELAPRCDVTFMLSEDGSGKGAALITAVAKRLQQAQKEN
In words: HKDC1 hexokinase inhibitors, SAR follow-up, biochemical, set 2 (AID 588355). The format is functional.

Assay [2] addresses Heat shock cognate 71 kDa protein (Homo sapiens, UniProt P11142). As to the kind of experiment: In Vitro Hsc70 Dose Response Fluorescence Polarization Assay. [Related pubchem assays: 1072 ].
Assay [3] has as its target T2, Oxysterols receptor LXR-beta (Homo sapiens, UniProt P55055).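 Also: Cell-based luminescence dose-response assay of agonist activity at LXR, run as a confirmatory counterscreen to a daf-12 agonist screen; HEK293 cells with Gal4-LXR fusion and GAL4-driven luciferase reporter; agonist potency from rising luciferase signal of a Gal4-LXR reporter.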
T2 sequence (P55055 whole entry): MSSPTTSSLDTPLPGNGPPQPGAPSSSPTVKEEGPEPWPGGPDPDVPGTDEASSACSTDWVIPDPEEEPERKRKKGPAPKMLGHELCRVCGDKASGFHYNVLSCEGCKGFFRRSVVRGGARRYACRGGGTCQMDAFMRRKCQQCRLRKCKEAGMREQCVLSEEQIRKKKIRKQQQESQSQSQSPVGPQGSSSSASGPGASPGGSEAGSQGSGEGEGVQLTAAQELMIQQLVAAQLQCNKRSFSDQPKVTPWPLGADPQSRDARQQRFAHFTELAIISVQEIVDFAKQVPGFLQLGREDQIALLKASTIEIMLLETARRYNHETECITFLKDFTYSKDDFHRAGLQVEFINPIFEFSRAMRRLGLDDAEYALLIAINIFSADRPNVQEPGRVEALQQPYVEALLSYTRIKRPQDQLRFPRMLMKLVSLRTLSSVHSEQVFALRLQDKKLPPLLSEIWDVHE
The format is functional, cell-based.

For assay [4], the target named is T3, Caspase-3 (Homo sapiens, UniProt P42574).
T3 sequence (P42574 whole entry): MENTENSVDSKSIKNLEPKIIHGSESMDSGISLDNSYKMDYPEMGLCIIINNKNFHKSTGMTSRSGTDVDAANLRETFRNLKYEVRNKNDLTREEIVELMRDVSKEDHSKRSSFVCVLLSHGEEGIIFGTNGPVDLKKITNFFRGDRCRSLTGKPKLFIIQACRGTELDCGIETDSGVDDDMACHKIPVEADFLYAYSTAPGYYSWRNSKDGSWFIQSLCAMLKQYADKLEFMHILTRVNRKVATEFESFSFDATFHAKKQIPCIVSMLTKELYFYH
In words: SAR Analysis of small molecule inhibitors of Sentrin-specific proteases (SENPs) using a Caspase-3 Selectivity assay. [Related pubchem assays (depositor defined):AID2540, AID2599, AID434973, AID489001]. It is filed as functional.

Assay [5] has as its target Tyrosine-protein kinase JAK2 (Homo sapiens, UniProt O60674). The format is functional.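 Also: JAK2 tested as one member of a kinase panel.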
In assay [6] the target is Serine/threonine-protein kinase D2 (Homo sapiens, UniProt Q9BZL6). The format is functional.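 Also: measured against PRKD2 as one member of a kinome-wide kinase profiling panel.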
Assay [7] deals with Serine/threonine-protein kinase Chk2 (Homo sapiens, UniProt O96017). The format is functional.
The target of assay [8] is Casein kinase I isoform gamma-1 (Homo sapiens, UniProt Q9HCP0). The format is functional.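 Also: measured as the CSNK1G1 member of a kinome profiling panel.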
Assay [9] has as its target Ribosomal protein S6 kinase alpha-5 (Homo sapiens, UniProt O75582). The format is functional.
Assay [10] addresses Tyrosine-protein kinase Lyn (Homo sapiens, UniProt P07948). It is filed as functional.
The target in assay [11] is Insulin receptor (Homo sapiens, UniProt P06213). It is filed as functional.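 Also: insulin receptor kinase tested as one member of a kinome-wide kinase panel.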
In assay [12] the target is Serine/threonine-protein kinase pim-3 (Homo sapiens, UniProt Q86V86). The format is functional.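 Also: value obtained as one member of a broad kinase panel profiling effort.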
The target of assay [13] is Non-receptor tyrosine-protein kinase TYK2 (Homo sapiens, UniProt P29597). The format is functional.
The target in assay [14] is Mitogen-activated protein kinase 1 (Homo sapiens, UniProt P28482). It is filed as functional.
Assay [15] concerns the target Interleukin-1 receptor-associated kinase 1 (Homo sapiens, UniProt P51617). The format is functional.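 Also: IRAK1 tested as one member of a kinome panel.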
For assay [16], the target named is Interleukin-1 receptor-associated kinase 4 (Homo sapiens, UniProt Q9NWZ3). It is filed as functional.
Assay [17] deals with Vascular endothelial growth factor receptor 3 (Homo sapiens, UniProt P35916). It is filed as functional.
The target of assay [18] is Serine/threonine-protein kinase pim-2 (Homo sapiens, UniProt Q9P1W9). It is filed as functional.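 Also: value comes from a broad kinase panel profiling study in which PIM2 was one of the panel members.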
Assay [19] addresses BDNF/NT-3 growth factors receptor (Homo sapiens, UniProt Q16620). The format is functional.
In assay [20] the target is Receptor tyrosine-protein kinase erbB-4 (Homo sapiens, UniProt Q15303). It is filed as functional.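 Also: ERBB4 member of a kinome-wide kinase profiling panel.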
The target in assay [21] is Serine/threonine-protein kinase MRCK alpha (Homo sapiens, UniProt Q5VT25). It is filed as functional.
For assay [22], the target named is Tyrosine-protein kinase receptor UFO (Homo sapiens, UniProt P30530). The format is functional.
Sequence of Tyrosine-protein kinase receptor UFO (P30530 whole entry): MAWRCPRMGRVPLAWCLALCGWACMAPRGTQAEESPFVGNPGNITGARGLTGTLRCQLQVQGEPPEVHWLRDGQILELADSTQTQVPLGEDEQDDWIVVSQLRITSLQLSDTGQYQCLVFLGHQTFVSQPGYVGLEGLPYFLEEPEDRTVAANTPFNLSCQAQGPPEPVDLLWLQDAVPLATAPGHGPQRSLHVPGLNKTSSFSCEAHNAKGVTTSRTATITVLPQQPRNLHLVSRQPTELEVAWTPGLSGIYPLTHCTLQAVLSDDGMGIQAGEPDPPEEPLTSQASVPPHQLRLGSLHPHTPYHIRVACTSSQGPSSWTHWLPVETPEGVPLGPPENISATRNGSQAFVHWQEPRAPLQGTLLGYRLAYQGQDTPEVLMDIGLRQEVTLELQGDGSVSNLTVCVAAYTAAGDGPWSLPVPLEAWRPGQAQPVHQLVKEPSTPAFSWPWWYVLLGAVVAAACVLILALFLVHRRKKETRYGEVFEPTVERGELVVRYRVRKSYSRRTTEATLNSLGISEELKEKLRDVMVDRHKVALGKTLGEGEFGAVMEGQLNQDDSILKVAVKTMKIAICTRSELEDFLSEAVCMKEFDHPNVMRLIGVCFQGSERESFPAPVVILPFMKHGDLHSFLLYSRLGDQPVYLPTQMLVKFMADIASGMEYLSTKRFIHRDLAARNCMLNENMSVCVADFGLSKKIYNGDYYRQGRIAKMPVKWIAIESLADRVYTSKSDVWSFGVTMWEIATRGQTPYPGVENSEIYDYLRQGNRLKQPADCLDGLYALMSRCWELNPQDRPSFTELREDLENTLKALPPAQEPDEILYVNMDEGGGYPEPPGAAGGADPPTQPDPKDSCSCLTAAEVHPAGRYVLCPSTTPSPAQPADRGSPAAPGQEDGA

Sequence of Serine/threonine-protein kinase MRCK alpha (Q5VT25 whole entry): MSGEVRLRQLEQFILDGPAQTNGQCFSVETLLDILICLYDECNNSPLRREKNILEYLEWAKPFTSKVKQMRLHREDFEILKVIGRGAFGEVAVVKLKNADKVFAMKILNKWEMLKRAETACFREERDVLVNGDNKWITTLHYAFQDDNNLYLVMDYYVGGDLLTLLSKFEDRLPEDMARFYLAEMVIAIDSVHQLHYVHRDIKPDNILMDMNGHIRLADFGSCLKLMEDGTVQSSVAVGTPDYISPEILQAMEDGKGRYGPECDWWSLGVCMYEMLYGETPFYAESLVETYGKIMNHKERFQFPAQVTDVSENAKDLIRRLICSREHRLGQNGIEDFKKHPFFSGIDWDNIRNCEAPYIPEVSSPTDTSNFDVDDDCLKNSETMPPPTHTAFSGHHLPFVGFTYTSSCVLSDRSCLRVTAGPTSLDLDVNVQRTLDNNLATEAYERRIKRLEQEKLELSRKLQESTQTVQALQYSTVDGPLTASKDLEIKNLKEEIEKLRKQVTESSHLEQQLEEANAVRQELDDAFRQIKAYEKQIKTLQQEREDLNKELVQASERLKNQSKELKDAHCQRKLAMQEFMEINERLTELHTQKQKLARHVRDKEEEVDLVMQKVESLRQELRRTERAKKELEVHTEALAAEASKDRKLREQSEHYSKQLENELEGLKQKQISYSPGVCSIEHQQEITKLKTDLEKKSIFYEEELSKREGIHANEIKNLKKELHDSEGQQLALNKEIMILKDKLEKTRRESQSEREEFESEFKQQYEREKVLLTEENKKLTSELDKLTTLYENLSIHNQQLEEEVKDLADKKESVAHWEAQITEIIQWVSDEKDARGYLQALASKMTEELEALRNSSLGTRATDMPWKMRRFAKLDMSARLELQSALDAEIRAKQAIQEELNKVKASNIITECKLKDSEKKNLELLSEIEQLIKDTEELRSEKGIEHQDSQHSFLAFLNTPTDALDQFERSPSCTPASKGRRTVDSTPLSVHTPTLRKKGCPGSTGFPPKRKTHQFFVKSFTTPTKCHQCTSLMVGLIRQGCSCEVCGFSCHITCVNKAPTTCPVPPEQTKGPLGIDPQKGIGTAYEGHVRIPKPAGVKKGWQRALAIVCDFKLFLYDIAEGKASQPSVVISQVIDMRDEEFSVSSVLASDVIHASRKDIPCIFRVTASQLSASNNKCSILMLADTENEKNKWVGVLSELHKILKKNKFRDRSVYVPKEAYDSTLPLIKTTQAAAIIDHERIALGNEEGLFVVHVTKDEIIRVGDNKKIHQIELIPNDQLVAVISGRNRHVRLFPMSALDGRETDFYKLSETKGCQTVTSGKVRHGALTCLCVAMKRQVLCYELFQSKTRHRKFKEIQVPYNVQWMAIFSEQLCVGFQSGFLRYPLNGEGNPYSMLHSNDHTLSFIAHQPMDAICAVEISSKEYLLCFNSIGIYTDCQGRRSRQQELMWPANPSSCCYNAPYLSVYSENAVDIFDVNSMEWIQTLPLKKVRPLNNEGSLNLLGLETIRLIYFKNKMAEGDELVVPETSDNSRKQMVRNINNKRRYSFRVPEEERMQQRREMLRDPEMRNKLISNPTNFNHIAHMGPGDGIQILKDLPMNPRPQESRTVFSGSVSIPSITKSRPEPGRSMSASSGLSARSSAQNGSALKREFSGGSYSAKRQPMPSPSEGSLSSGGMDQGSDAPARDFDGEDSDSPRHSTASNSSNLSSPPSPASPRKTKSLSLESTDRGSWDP
Sequence of Serine/threonine-protein kinase pim-2 (Q9P1W9 whole entry): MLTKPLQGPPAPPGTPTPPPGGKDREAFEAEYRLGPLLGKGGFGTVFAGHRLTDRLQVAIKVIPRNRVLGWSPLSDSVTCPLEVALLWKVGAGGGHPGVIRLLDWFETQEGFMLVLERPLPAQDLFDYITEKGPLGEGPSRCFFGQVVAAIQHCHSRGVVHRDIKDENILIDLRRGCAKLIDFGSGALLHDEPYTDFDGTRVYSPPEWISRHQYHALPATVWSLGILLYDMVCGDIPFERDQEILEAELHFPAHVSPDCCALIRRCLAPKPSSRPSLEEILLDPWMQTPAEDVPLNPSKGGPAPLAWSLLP
Sequence of Mitogen-activated protein kinase 1 (P28482 whole entry): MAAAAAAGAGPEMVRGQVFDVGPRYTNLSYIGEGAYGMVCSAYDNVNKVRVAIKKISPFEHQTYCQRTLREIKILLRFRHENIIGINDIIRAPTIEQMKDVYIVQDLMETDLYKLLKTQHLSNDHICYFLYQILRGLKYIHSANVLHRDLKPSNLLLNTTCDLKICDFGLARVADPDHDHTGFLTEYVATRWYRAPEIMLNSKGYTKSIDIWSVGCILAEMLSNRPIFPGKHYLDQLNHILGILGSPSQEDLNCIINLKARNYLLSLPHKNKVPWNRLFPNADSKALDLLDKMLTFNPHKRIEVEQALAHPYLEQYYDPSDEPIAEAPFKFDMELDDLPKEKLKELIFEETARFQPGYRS
Sequence of Tyrosine-protein kinase JAK2 (O60674 whole entry): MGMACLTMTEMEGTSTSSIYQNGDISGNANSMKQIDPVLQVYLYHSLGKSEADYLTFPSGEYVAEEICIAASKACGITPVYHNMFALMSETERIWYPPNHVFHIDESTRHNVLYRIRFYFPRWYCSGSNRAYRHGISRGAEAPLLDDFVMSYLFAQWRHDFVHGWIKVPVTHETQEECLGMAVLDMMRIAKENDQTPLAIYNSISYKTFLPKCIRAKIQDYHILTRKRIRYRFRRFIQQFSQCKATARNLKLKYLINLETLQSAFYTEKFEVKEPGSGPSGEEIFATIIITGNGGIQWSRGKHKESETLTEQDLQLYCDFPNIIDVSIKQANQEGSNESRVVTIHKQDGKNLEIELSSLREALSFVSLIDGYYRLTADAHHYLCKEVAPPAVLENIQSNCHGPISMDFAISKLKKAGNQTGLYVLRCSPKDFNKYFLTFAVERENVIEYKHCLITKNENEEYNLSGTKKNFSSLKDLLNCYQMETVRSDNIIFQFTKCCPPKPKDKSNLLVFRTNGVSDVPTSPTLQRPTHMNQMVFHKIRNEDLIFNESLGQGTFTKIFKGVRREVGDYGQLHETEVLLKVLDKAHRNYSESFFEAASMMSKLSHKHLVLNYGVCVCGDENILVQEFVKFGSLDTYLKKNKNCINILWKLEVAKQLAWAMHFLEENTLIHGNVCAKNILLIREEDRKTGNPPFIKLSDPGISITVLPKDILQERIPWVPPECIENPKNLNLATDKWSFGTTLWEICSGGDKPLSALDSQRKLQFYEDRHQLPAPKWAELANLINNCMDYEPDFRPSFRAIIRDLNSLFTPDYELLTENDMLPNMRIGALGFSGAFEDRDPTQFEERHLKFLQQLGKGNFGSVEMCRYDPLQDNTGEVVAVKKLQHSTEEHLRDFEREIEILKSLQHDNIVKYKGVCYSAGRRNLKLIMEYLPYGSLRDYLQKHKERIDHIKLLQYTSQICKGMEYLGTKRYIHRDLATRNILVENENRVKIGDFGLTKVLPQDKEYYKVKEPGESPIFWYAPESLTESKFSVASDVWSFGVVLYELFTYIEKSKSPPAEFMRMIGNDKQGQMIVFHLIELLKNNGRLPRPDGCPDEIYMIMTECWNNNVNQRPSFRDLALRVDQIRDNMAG
Sequence of Interleukin-1 receptor-associated kinase 4 (Q9NWZ3 whole entry): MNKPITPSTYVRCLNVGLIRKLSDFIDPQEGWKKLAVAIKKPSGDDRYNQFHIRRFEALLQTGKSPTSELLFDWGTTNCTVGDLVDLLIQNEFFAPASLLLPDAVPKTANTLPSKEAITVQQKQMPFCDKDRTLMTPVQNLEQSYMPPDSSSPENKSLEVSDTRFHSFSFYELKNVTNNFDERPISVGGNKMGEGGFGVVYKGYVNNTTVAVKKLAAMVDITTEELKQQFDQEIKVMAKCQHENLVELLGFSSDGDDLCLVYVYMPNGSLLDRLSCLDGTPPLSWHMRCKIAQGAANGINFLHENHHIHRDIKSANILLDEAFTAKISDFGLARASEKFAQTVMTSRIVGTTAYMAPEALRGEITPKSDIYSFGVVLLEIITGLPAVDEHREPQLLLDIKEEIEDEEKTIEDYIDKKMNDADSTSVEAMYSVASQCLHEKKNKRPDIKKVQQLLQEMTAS

By IC50 is commonly meant the concentration at which inhibition is half-maximal. As for `CC(=O)NC1C(=O)N(CCN2CCOCC2)c2ccc(F)cc21` (centres undefined), the IC50 in [1] is 14900 nM (active).

`O=C(O)C1Nc2c(O)cc(Cl)c([N+](=O)[O-])c2C2C=CCC12` (centres undefined): the IC50 in assay [2] is 175000 nM (active).

One may read the EC50 as the concentration giving half of the maximal effect. Turning to `Clc1ccc2nc(-c3ccc(Br)s3)cn2c1`, the EC50 in [3] was > 67500 nM (inactive).

For the compound `O=C(CCc1ccccc1)NNc1cc(N2CCCCC2)nc(N2CCCCC2)n1`, the IC50 in assay [4] was > 99000 nM (inactive).

As usually defined, the Ki is a dissociation constant, usually derived from enzyme kinetics or from competition with a known ligand. By pKi is commonly meant the negative decadic logarithm of the Ki, by convention in mol/L. For the compound `Cc1n[nH]c2ccc(-c3cncc(OCC(N)Cc4cccc(Cl)c4)c3)cc12` (centres undefined), the inhibition constant Ki in assay [5] was 1260 nM (active); in assay [6] it was 39.8 nM (active); in [7] it was 631 nM (active); in assay [8] it was 79.4 nM (active); in assay [9] it was 5.01 nM (active); in assay [10], > 1580 nM (inactive). For the same compound, the inhibitory constant (Ki) in assay [11] is 3160 nM (active); in [12] it was 10 nM (active); in assay [13], > 2000 nM (inactive); in [14], 79.4 nM (active); in assay [15], 1260 nM (active); in assay [16] it was 158 nM (active). The Ki in [17] is 2510 nM (active); in [18], 10 nM (active); in assay [19], > 5010 nM (inactive); in assay [20], > 3980 nM (inactive); in assay [21], 7.94 nM (active); in [22] it was 158 nM (active). Besides, the pKi in assay [21] is reported as 8.1; in [22], 6.8.
